Laboratory results as given in US20250194599A1, “PESTICIDE FORMULATIONS” (FMC CORPORATION, priority 2022, published 2025).

How the values were obtained:
Type in all cases: in vivo
[1] = tested on: Cydia pomonella; assay: Field trial Example 1: fruit damage counts, 1000 fruit per plot, apple orchards; conditions: Trial 4 (highest codling moth infestation), apple orchard, Argentina; programs of Table 1; letters = significantly different groups (Chi-square)
Description: (§1) A field trial was conducted in Argentina to determine the effect of blending codling moth pheromone, (E,E)-8,10-dodecadien-1-ol, with chlorantraniliprole for control of coding moth population in apple orchards. The first flight of codling moth was targeted, at which time standard grower treatment pheromone dispensers had been placed in the respective fields. Applications of the chlorantraniliprole or chlorantraniliprole+pheromone were timed when eggs were expected to hatch.
(§2) Treatment programs comprising nine tracts of land across three farms were performed (see FIGS. 1A-C). SC=suspension concentrate; VP=vapor releasing product; WG=water-dispersible granules.
(§3) In brief, one treatment program was performed using an application of pheromone alone at 90 DD followed by applications of chlorantraniliprole plus pheromone at 250 DD and 250DD+21 days, respectively. A separate treatment was performed by applying chlorantraniliprole alone at 250 DD and 250DD+21 days. […]
(§4) Treatment effects were determined by conducting fruit damage counts prior to second generation flights by evaluating 1000 fruit in each plot for codling moth damage. […] The bands were removed during the second week of January, taken to the lab and counted.

[2] = tested on: Cydia pomonella; assay: Field trial Example 1: pupae counts in corrugated cardboard tree bands on 100 trees; conditions: Trial 4 (highest infestation), programs of Table 1
Description: as §1, §2, §3, §4

[3] = tested on: Cydia pomonella; assay: Field trial Example 2: larva per hectare captured from corrugated cardboard traps in 100 trees; conditions: treatments of Table 4, FIG. 6
Description: (§5) A field trial was conducted in Argentina to evaluate the efficacy of chlorantraniliprole in combination with a kairomone, ethyl (2E,4Z)-2,4-decadienoate, to improve Cydia pomonella control in foliar application of apple (Malus domestica) compared to the efficacy of chlorantraniliprole alone and kairomone alone. SC=suspension concentrate; CS=capsule suspension
(§6) Efficacy of the trial was evaluated by (1) comparing the number of damaged fruit across the treatment groups; and (2) comparing the larva captured per hectare that were captured from corrugated cardboard traps settled in 100 trees. As shown in FIGS. 4-5, there was a significant difference in damaged fruits treatments that included chlorantraniliprole+kairomone compared to fruits treated with only chlorantraniliprole.

[4] = tested on: Cydia pomonella; assay: Field trial Example 2: number of damaged fruit across treatment groups, apple; conditions: Example 2, foliar application, treatments of Table 4, FIGS. 4-5
Description: as §5, §6

| Structure (SMILES) | # Damaged Fruit/ 1000 fruit [1] | # of Pupae Found [2] | larva per hectare captured in corrugated cardboard traps [3] | damaged fruits out of 1000 fruits per treatment [4] |
| --- | --- | --- | --- | --- |
| CNC(=O)c1cc(Cl)cc(C)c1NC(=O)c1cc(Br)nn1-c1ncccc1Cl [Chlorantraniliprole Alone, 3-bromo-N-(4-chloro-2-methyl-6-(methylcarbamoyl)phenyl)-1-(3-chloropyridin-2-yl)-1H-pyrazole-5-carboxamide] | 39c | 1782 | – | – |
| CCCCC/C=C\C=C\C(=O)OCC [Kairomone, ethyl (2E,4Z)-2,4-decadienoate] | – | – | larva per hectare significantly higher compared to all other treatments | number of damaged fruits significantly higher compared to all other treatments |
